According to article PMC12203311, “Design, synthesis, in silico and in vitro evaluation of pyrrole–indole hybrids as dual tubulin and aromatase inhibitors with potent anticancer activities” (RSC Advances, 2025):

Experiments:
U251 = assay: NCI60 five-dose screen; assay type: cell-based; conditions: Homo sapiens, U-251, U251, CNS cancer; for CC50: read-out: LC50 (the source's name)
SK-MEL-5 = assay: NCI60 five-dose screen; assay type: cell-based, human; conditions: Homo sapiens; for CC50: SK-MEL-5, SK-MEL-5, melanoma, read-out: LC50 (the source's name); for GI50: SK-MEL-5, melanoma
HS 578T = assay: NCI60 five-dose screen; assay type: cell-based; conditions: Homo sapiens, breast cancer; for CC50: read-out: LC50 (the source's name)
porcine brain tubulin = target: T1, porcine brain tubulin (Sus scrofa, UniProt P02550+P02554); assay: Tubulin polymerisation assay (fluorescence-based); assay type: biochemical; conditions: 10 µM, 37 °C
T1 construct: a solution containing porcine brain tubulin (2 mg mL^−1); purchased Cytoskeleton BK011P; host or cells: porcine brain (tissue-purified)
Method: The tubulin polymerisation experimental protocol followed the method described in this literature.[28] The experimental was using fluorescence-based assay kit (Cytoskeleton, catalog no. BK011P). In Brief, 5 µL of test compounds was added to a 96-well plate, then mix with 50 µL of a solution containing porcine brain tubulin (2 mg mL^−1) in buffer with 20% glycerol and 1 mM GTP. A microplate reader (Varioskan™ LUX multimode microplate reader, Thermo Scientific™) was used to measure fluorescence intensity every 60 seconds for 60 minutes, with excitation at 360 nm and emission at 450 nm, maintained at 37 °C throughout the experiment.

HCT-116 = assay: NCI60 five-dose screen; assay type: cell-based; conditions: Homo sapiens, HCT-116, colon cancer; for CC50: read-out: LC50 (the source's name)
NCI-H322M = assay: NCI60 five-dose screen; assay type: cell-based; conditions: Homo sapiens, NSC lung cancer; for CC50: read-out: LC50 (the source's name)
SNB-75 = assay: NCI60 five-dose screen; assay type: cell-based; conditions: Homo sapiens, SNB-75, CNS cancer; for CC50: read-out: LC50 (the source's name)
MOLT-4 = assay: NCI60 five-dose screen; assay type: cell-based; conditions: Homo sapiens, MOLT-4, leukemia; for CC50: read-out: LC50 (the source's name)
IGROV1 = assay: NCI60 five-dose screen; assay type: cell-based; conditions: Homo sapiens, IGROV-1; IGROV1, ovarian cancer
KM12 = assay: NCI60 five-dose screen; assay type: cell-based; conditions: Homo sapiens, KM12, colon cancer; for CC50: read-out: LC50 (the source's name)
OVCAR-4 = assay: NCI60 five-dose screen; assay type: cell-based; conditions: Homo sapiens, OVCAR-4, ovarian cancer; for CC50: read-out: LC50 (the source's name)
SR = assay: NCI60 five-dose screen; assay type: cell-based; conditions: Homo sapiens, leukemia; for CC50: read-out: LC50 (the source's name)

T1 sequence (P02554 whole entry): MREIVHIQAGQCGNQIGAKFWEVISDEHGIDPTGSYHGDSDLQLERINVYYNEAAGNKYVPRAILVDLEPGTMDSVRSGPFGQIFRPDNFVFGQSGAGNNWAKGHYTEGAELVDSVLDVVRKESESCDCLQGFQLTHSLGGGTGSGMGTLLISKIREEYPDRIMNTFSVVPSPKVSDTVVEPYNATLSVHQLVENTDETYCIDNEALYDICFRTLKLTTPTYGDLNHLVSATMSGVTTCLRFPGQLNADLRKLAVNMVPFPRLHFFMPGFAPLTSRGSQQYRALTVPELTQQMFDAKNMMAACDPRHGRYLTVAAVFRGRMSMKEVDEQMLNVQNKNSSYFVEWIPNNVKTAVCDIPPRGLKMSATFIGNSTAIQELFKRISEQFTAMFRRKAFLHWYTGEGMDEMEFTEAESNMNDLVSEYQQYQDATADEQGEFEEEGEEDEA
T1 sequence (P02550 whole entry): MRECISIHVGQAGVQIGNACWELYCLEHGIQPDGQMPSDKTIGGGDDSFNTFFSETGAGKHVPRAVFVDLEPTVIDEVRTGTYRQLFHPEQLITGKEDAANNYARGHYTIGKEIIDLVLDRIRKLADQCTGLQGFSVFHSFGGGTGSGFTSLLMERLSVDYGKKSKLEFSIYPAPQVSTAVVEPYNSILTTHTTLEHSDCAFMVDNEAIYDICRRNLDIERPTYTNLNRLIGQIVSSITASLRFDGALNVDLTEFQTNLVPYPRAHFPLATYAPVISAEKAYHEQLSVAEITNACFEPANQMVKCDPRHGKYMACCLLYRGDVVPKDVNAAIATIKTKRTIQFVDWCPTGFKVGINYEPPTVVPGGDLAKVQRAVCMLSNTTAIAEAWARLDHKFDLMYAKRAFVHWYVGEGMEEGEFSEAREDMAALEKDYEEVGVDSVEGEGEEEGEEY

Structure (SMILES) | GI50 (U251) | CC50 (U251) | CC50 (SK-MEL-5) | GI50 (SK-MEL-5) | GI50 (HS 578T) | CC50 (HS 578T) | GI50 (HCT-116) | CC50 (HCT-116) | GI50 (NCI-H322M) | CC50 (NCI-H322M) | GI50 (SNB-75) | CC50 (SNB-75) | GI50 (MOLT-4) | CC50 (MOLT-4) | GI50 (IGROV1) | GI50 (KM12) | CC50 (KM12) | GI50 (OVCAR-4) | CC50 (OVCAR-4) | GI50 (SR) | further results
O=C(N/N=C/c1[nH]ccc1Cl)c1[nH]c2ccc(Br)cc2c1-c1ccccc1 [Derivative 3g, (E)-5-Bromo-N′-((3-chloro-1H-pyrrol-2-yl)methylene)-3-phenyl-1H-indole-2-carbohydrazide] | 630 nM | 37.7 µM | 63 µM | 427 nM | 590 nM | > 100 µM | 467 nM | 79.9 µM | 3.14 µM | 48.8 µM | 325 nM | 38.6 µM | 1710 nM | > 100 µM | 734 nM | 488 nM | 34.6 µM | 3090 nM | 43.5 µM |  | tubulin inhibition (porcine brain tubulin): weak tubulin inhibitors
O=C(N/N=C/c1ccc([N+](=O)[O-])[nH]1)c1[nH]c2ccc(Br)cc2c1-c1ccccc1 [Derivative 3p, (E)-5-Bromo-N′-((5-nitro-1H-pyrrol-2-yl)methylene)-3-phenyl-1H-indole-2-carbohydrazide] | 987 nM | 39.2 µM | 8.69 µM | 1020 nM | 270 nM | 94.3 µM | 439 nM | 33.8 µM | 11 µM | 53.3 µM | 482 nM | 40.5 µM | 537 nM | > 100 µM | 1480 nM | 1170 nM | 34.2 µM | 679 nM | 35.9 µM | 354 nM | CC50 (SR): > 100 µM; RFU in tubulin polymerization assay (porcine brain tubulin): ~50 arbitrary units
CCc1ccc(/C=N/NC(=O)c2[nH]c3ccc(Br)cc3c2-c2ccccc2)[nH]1 [Derivative 3s, (E)-5-Bromo-N′-((5-ethyl-1H-pyrrol-2-yl)methylene)-3-phenyl-1H-indole-2-carbohydrazide] | 329 nM | 36.7 µM | 10.1 µM | 381 nM | 294 nM | > 100 µM | 325 nM | 31.9 µM | 1.73 µM | 64.6 µM | 285 nM | 54.1 µM | 464 nM | > 100 µM | 612 nM | 289 nM | 37.5 µM | 2410 nM | 53.7 µM | 419 nM | CC50 (SR): > 100 µM; RFU in tubulin polymerization assay (porcine brain tubulin): ~55 arbitrary units; LC50 (concentration causing 50% net cell kill) (IGROV1): 43.3 µM
CCc1cc[nH]c1/C=N/NC(=O)c1[nH]c2ccc(Br)cc2c1-c1ccccc1 [Derivative 3u, (E)-5-Bromo-N′-((3-ethyl-1H-pyrrol-2-yl)methylene)-3-phenyl-1H-indole-2-carbohydrazide] | 2150 nM | 37.8 µM | 27.2 µM | 2540 nM | 3600 nM | 61.8 µM | 2500 nM | 44 µM | 3.93 µM | 43.4 µM | 4940 nM | 43.4 µM | 2370 nM | 55.1 µM | 3520 nM | 3170 nM | 42.3 µM | 3330 nM | 43.7 µM | 2020 nM | CC50 (SR): > 100 µM; tubulin inhibition (porcine brain tubulin): weak tubulin inhibitors; LC50 (concentration causing 50% net cell kill) (IGROV1): 44 µM
O=C(N/N=C/c1ccc[nH]1)c1[nH]c2ccc(Br)cc2c1-c1ccccc1 [Derivative 3a, (E)-N′-((1H-Pyrrol-2-yl)methylene)-5-bromo-3-phenyl-1H-indole-2-carbohydrazide] | 375 nM | 12.4 µM | 15.7 µM | 302 nM | 452 nM | > 100 µM | 280 nM | 32.3 µM | 0.661 µM | 36.5 µM | 136 nM | 16 µM | 384 nM | > 100 µM | 404 nM | 388 nM | 56.5 µM | 814 nM | 33.6 µM | 160 nM | CC50 (SR): > 100 µM; RFU in tubulin polymerization assay (porcine brain tubulin): ~55 arbitrary units; LC50 (concentration causing 50% net cell kill) (IGROV1): 14.6 µM
